Measured values from ChEMBL document CHEMBL4507279, “Data for DCP probe BI-9627” (2021).

Assays:
[1] = molecular target: Eukaryotic translation initiation factor 2-alpha kinase 1 (Homo sapiens) (UniProt Q9BQI3); settings: Compound concentration 1000.0 nM
[2] = molecular target: Sodium-dependent noradrenaline transporter (Homo sapiens) (UniProt P23975); settings: Compound concentration 10.0 uM
[3] = test system: Mast/stem cell growth factor receptor Kit (Homo sapiens), P10721 [V559D,V654A]; settings: Compound concentration 1000.0 nM
[4] = molecular target: Cyclin-dependent kinase 16 (Homo sapiens) (UniProt Q00536); settings: Compound concentration 1000.0 nM
[5] = molecular target: Serine/threonine-protein kinase haspin (Homo sapiens) (UniProt Q8TF76); settings: Compound concentration 1000.0 nM
[6] = molecular target: Serine/threonine-protein kinase Nek7 (Homo sapiens) (UniProt Q8TDX7); settings: Compound concentration 1000.0 nM
[7] = molecular target: Receptor-type tyrosine-protein kinase FLT3 (Homo sapiens) (UniProt P36888); settings: Compound concentration 1000.0 nM
[8] = molecular target: Cyclin-dependent kinase 4 (Homo sapiens) (UniProt P11802); settings: Compound concentration 1000.0 nM
[9] = molecular target: Serine/threonine-protein kinase tousled-like 1 (Homo sapiens) (UniProt Q9UKI8); settings: Compound concentration 1000.0 nM
[10] = molecular target: Mitogen-activated protein kinase kinase kinase 20 (Homo sapiens) (UniProt Q9NYL2); settings: Compound concentration 1000.0 nM
[11] = molecular target: Serine/threonine-protein kinase DCLK1 (Homo sapiens) (UniProt O15075); settings: Compound concentration 1000.0 nM
[12] = molecular target: Serine/threonine-protein kinase 33 (Homo sapiens) (UniProt Q9BYT3); settings: Compound concentration 1000.0 nM
[13] = molecular target: Ribosomal protein S6 kinase alpha-1 (Homo sapiens) (UniProt Q15418); settings: Compound concentration 1000.0 nM
[14] = molecular target: Ribosomal protein S6 kinase alpha-2 (Homo sapiens) (UniProt Q15349); settings: Compound concentration 1000.0 nM
[15] = molecular target: Serine/threonine-protein kinase 3 (Homo sapiens) (UniProt Q13188); settings: Compound concentration 1000.0 nM
[16] = molecular target: Dual specificity mitogen-activated protein kinase kinase 4 (Homo sapiens) (UniProt P45985); settings: Compound concentration 1000.0 nM
[17] = test system: Epidermal growth factor receptor (Homo sapiens), P00533 [UNDEFINED MUTATION]; settings: Compound concentration 1000.0 nM
[18] = molecular target: Phosphatidylinositol 3-kinase catalytic subunit type 3 (Homo sapiens) (UniProt Q8NEB9); settings: Compound concentration 1000.0 nM
[19] = molecular target: Serine/threonine-protein kinase PLK4 (Homo sapiens) (UniProt O00444); settings: Compound concentration 1000.0 nM
[20] = molecular target: Interleukin-1 receptor-associated kinase 4 (Homo sapiens) (UniProt Q9NWZ3); settings: Compound concentration 1000.0 nM
[21] = molecular target: Serine/threonine-protein kinase ULK2 (Homo sapiens) (UniProt Q8IYT8); settings: Compound concentration 1000.0 nM
[22] = molecular target: Serine/threonine-protein kinase OSR1 (Homo sapiens) (UniProt O95747); settings: Compound concentration 1000.0 nM
[23] = molecular target: Ephrin type-A receptor 7 (Homo sapiens) (UniProt Q15375); settings: Compound concentration 1000.0 nM
[24] = molecular target: Serine/threonine-protein kinase N1 (Homo sapiens) (UniProt Q16512); settings: Compound concentration 1000.0 nM
[25] = molecular target: Insulin receptor (Homo sapiens) (UniProt P06213); settings: Compound concentration 1000.0 nM
[26] = molecular target: 5-hydroxytryptamine receptor 2B (Homo sapiens) (UniProt P41595); settings: Compound concentration 10.0 uM
[27] = molecular target: Aurora kinase B (Homo sapiens) (UniProt Q96GD4); settings: Compound concentration 1000.0 nM
[28] = molecular target: Serine/threonine-protein kinase 32B (Homo sapiens) (UniProt Q9NY57); settings: Compound concentration 1000.0 nM
[29] = molecular target: Serine/threonine-protein kinase SBK1 (Homo sapiens) (UniProt Q52WX2); settings: Compound concentration 1000.0 nM
[30] = molecular target: Beta-3 adrenergic receptor (Homo sapiens) (UniProt P13945); settings: Compound concentration 10.0 uM
[31] = molecular target: Serine/threonine-protein kinase ICK (Homo sapiens) (UniProt Q9UPZ9); settings: Compound concentration 1000.0 nM
[32] = molecular target: Interleukin-1 receptor-associated kinase 3 (Homo sapiens) (UniProt Q9Y616); settings: Compound concentration 1000.0 nM
[33] = molecular target: MAP/microtubule affinity-regulating kinase 4 (Homo sapiens) (UniProt Q96L34); settings: Compound concentration 1000.0 nM
[34] = test system: Epidermal growth factor receptor (Homo sapiens), P00533 [L858R,T790M]; settings: Compound concentration 1000.0 nM
[35] = test system: eIF-2-alpha kinase GCN2 (Homo sapiens), Q9P2K8 [S808G]; settings: Compound concentration 1000.0 nM
[36] = molecular target: Phosphatidylinositol 5-phosphate 4-kinase type-2 gamma (Homo sapiens) (UniProt Q8TBX8); settings: Compound concentration 1000.0 nM
[37] = molecular target: Inhibitor of nuclear factor kappa-B kinase subunit epsilon (Homo sapiens) (UniProt Q14164); settings: Compound concentration 1000.0 nM
[38] = molecular target: Serine/threonine-protein kinase WNK2 (Homo sapiens) (UniProt Q9Y3S1); settings: Compound concentration 1000.0 nM
[39] = molecular target: Protein kinase C eta type (Homo sapiens) (UniProt P24723); settings: Compound concentration 1000.0 nM
[40] = molecular target: Tyrosine-protein kinase receptor TYRO3 (Homo sapiens) (UniProt Q06418); settings: Compound concentration 1000.0 nM
[41] = molecular target: Ribosomal protein S6 kinase alpha-5 (Homo sapiens) (UniProt O75582); settings: Compound concentration 1000.0 nM
[42] = molecular target: Serine/threonine-protein kinase WNK3 (Homo sapiens) (UniProt Q9BYP7); settings: Compound concentration 1000.0 nM
[43] = molecular target: Ephrin type-A receptor 8 (Homo sapiens) (UniProt P29322); settings: Compound concentration 1000.0 nM
[44] = molecular target: Serine/threonine-protein kinase TAO3 (Homo sapiens) (UniProt Q9H2K8); settings: Compound concentration 1000.0 nM
[45] = molecular target: Serine/threonine-protein kinase RIO2 (Homo sapiens) (UniProt Q9BVS4); settings: Compound concentration 1000.0 nM

MAP/microtubule affinity-regulating kinase 4 (Homo sapiens), sequence (Q96L34 whole entry): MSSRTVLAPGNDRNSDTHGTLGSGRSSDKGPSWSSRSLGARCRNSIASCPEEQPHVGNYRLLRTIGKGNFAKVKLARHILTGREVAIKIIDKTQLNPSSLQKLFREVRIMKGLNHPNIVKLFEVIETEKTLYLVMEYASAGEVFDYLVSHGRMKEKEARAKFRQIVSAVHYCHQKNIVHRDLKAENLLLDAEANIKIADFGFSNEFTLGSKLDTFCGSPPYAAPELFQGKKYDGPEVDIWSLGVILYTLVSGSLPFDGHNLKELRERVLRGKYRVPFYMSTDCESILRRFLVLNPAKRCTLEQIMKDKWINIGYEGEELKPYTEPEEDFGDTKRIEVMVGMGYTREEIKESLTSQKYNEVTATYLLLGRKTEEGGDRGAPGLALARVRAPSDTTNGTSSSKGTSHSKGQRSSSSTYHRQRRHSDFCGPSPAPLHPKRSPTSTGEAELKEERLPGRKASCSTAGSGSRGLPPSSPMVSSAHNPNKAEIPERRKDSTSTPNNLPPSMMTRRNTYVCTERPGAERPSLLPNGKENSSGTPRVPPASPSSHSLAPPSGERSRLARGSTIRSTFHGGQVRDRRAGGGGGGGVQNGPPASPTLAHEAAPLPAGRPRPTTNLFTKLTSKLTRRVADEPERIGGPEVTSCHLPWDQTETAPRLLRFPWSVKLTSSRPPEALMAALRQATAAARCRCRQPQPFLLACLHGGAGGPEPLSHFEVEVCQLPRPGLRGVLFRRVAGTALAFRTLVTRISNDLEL
Serine/threonine-protein kinase haspin (Homo sapiens), sequence (Q8TF76 whole entry): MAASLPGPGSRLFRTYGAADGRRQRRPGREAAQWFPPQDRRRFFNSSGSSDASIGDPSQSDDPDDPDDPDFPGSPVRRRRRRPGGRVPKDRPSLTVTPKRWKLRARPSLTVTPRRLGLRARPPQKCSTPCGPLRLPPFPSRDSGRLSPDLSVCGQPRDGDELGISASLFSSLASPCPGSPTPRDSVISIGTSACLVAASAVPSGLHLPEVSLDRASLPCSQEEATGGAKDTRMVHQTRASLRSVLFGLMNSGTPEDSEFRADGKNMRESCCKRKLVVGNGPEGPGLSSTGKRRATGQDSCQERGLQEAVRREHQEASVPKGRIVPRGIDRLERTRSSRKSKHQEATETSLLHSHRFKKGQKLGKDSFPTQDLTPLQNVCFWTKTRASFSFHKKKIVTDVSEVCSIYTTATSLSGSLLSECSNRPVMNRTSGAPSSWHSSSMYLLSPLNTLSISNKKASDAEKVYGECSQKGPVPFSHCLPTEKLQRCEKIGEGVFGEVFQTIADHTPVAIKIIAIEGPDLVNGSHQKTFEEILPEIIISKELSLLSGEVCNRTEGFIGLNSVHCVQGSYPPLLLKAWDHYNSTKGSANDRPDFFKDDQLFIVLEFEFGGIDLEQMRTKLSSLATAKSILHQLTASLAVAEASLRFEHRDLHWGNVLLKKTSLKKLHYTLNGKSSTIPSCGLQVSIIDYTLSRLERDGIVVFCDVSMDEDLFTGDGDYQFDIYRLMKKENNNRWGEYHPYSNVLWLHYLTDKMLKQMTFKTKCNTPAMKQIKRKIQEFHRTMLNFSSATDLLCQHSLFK
Ephrin type-A receptor 8 (Homo sapiens), sequence (P29322 whole entry): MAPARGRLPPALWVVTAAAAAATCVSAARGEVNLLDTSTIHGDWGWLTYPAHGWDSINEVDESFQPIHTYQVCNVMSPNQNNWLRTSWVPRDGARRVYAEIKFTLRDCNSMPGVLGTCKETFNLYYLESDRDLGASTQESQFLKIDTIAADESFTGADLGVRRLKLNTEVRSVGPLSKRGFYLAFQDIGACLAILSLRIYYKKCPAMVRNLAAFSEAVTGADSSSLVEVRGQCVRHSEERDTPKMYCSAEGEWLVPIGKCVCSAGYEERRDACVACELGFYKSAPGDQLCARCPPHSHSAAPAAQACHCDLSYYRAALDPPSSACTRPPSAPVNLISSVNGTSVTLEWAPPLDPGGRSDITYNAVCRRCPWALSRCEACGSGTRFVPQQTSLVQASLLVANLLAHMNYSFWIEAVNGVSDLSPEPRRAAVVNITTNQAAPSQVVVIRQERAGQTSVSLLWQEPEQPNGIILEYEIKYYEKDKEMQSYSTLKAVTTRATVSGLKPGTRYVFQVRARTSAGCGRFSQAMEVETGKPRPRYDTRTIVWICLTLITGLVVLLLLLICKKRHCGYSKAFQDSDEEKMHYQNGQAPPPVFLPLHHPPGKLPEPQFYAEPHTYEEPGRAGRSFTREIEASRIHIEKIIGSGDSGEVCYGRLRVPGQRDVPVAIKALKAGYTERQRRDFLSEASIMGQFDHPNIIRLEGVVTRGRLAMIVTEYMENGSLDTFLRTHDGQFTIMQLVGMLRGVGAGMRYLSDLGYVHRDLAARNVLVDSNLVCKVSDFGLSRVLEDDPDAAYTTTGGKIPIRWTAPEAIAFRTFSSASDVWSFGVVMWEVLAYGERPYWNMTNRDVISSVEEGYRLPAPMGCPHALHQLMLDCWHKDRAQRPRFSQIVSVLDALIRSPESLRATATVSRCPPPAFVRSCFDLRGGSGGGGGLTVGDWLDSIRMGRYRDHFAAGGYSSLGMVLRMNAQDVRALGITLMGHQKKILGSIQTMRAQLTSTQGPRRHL
Serine/threonine-protein kinase OSR1 (Homo sapiens), sequence (O95747 2-527 limits assumed): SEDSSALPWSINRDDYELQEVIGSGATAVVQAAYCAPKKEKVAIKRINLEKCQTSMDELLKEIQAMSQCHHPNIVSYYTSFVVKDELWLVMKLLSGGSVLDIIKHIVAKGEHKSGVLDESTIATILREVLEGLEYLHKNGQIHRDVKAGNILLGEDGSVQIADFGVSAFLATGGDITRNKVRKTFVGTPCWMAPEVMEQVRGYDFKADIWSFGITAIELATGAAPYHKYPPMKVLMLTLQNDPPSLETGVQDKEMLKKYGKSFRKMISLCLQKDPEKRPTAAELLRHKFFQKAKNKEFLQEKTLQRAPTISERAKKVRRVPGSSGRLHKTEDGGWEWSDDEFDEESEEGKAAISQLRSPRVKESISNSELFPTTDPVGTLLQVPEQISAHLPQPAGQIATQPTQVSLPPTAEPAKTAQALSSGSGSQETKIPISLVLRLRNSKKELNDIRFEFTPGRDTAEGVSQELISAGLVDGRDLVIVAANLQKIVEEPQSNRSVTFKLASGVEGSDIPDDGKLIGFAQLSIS
Serine/threonine-protein kinase TAO3 (Homo sapiens), sequence (Q9H2K8 whole entry): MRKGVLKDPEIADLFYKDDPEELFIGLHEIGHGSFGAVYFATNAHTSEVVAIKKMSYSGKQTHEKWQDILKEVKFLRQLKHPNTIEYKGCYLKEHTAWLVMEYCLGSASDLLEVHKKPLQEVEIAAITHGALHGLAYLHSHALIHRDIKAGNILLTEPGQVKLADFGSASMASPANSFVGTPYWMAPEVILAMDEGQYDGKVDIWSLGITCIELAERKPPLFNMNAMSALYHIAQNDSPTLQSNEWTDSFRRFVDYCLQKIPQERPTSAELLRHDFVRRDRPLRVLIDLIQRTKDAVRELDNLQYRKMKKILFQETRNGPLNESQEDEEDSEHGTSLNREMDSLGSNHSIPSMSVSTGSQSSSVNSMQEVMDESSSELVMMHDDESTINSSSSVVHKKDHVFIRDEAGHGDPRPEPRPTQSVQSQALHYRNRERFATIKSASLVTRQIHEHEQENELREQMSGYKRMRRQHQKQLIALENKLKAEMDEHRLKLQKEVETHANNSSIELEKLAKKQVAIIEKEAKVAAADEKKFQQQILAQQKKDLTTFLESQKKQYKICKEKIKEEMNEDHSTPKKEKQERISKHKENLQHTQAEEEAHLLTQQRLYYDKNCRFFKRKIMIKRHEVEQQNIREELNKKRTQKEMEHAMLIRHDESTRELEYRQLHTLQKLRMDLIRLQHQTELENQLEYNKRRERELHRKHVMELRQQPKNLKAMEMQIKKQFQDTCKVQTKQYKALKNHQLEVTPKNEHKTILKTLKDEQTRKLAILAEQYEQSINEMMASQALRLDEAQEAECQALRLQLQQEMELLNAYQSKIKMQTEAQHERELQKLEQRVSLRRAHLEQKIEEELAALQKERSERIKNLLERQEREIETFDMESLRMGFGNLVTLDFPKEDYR
Ribosomal protein S6 kinase alpha-5 (Homo sapiens), sequence (O75582 whole entry, looked up): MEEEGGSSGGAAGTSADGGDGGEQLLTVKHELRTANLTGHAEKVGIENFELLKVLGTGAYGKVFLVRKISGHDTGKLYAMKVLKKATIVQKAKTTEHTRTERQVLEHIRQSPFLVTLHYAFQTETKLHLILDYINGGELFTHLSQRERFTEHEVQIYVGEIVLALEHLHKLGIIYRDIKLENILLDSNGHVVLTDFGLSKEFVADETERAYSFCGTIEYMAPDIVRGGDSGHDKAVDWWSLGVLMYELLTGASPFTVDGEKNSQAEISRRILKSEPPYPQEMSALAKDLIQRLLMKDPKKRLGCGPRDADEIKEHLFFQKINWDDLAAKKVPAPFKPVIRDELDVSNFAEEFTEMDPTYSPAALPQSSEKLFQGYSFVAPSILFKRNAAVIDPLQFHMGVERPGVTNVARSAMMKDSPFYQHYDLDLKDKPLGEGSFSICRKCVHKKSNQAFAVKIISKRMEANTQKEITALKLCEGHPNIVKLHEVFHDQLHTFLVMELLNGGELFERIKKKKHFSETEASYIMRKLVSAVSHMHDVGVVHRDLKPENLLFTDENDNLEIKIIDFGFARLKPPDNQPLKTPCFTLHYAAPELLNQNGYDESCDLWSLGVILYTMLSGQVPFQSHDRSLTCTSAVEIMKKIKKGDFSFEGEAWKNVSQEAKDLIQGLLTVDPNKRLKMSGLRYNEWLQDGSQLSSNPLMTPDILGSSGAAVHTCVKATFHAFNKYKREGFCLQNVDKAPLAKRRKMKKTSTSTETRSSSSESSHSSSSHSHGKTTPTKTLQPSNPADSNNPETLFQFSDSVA

CC(=O)N1CCC(c2ccc(C(=O)NC(=N)N)cc2C(F)(F)F)CC1 [BI 9627]
inactive: residual activity [1] 100% | inhibition [2] 28.6% | residual activity [3] 100% | residual activity [4] 91% | residual activity [5] 100% | residual activity [6] 100% | residual activity [7] 100% | residual activity [8] 100% | residual activity [9] 100% | residual activity [10] 100% | residual activity [11] 100% | residual activity [12] 100% | residual activity [13] 100% | residual activity [14] 97% | residual activity [15] 100% | residual activity [16] 95% | residual activity [17] 100% | residual activity [18] 100% | residual activity [19] 100% | residual activity [20] 100% | residual activity [21] 100% | residual activity [22] 100% | residual activity [23] 100% | residual activity [24] 87% | residual activity [25] 100% | inhibition [26] -8.79% | residual activity [27] 100% | residual activity [28] 89% | residual activity [29] 100% | inhibition [30] 5.47% | residual activity [31] 94% | residual activity [32] 99% | residual activity [33] 100% | residual activity [34] 100% | residual activity [35] 73% | residual activity [36] 100% | residual activity [37] 70% | residual activity [38] 98% | residual activity [39] 100% | residual activity [40] 100% | residual activity [41] 97% | residual activity [42] 84% | residual activity [43] 100% | residual activity [44] 86% | residual activity [45] 100%

CC(=O)N1CCC(c2ccc(C(=O)NC3=NCCN3)cc2C(F)(F)F)CC1 [BI 0054]
inactive: residual activity [1] 83% | inhibition [2] 21.5% | residual activity [3] 100% | residual activity [4] 84% | residual activity [5] 78% | residual activity [6] 100% | residual activity [7] 100% | residual activity [8] 98% | residual activity [9] 100% | residual activity [10] 88% | residual activity [11] 89% | residual activity [12] 100% | residual activity [13] 100% | residual activity [14] 83% | residual activity [15] 100% | residual activity [16] 100% | residual activity [17] 100% | residual activity [18] 88% | residual activity [19] 100% | residual activity [20] 89% | residual activity [21] 82% | residual activity [22] 100% | residual activity [23] 99% | residual activity [24] 100% | residual activity [25] 100% | inhibition [26] -2.75% | residual activity [27] 100% | residual activity [28] 100% | residual activity [29] 97% | inhibition [30] 8.52% | residual activity [31] 88% | residual activity [32] 100% | residual activity [33] 100% | residual activity [34] 100% | residual activity [35] 52% | residual activity [36] 94% | residual activity [37] 71% | residual activity [38] 100% | residual activity [39] 100% | residual activity [40] 89% | residual activity [41] 70% | residual activity [42] 86% | residual activity [43] 93% | residual activity [44] 87% | residual activity [45] 93%
